The values that follow come from patent publication US10620188B2, “Using impedance-based cell response profiling to identify putative inhibitors for oncogene addicted targets or pathways” (ACEA Biosciences, Inc., priority 2002, dated 2020).

Like-named read-outs stand apart in the source and are kept apart here.

The test system of one assay is Colo-205. Briefly: Impedance-based TCRP of Colo-205 cells, b-Raf (V600E). The following applies: increasing concentrations. Type of assay: cell-based, human.
The next assay relates to H1993. Briefly: Impedance-based TCRP of Met addicted H1993 cells (xCelligence). The following applies: H1993; increasing concentrations. The class given is cell-based, human.
The test system of a further assay is SH-SY5Y. In words: Impedance-based TCRP of SH-SY5Y cells, mutant ALK (F1174L). The class given is cell-based, human. Conditions: 10 uM.
A further assay relates to SK-MEL-28. In words: Impedance-based TCRP of SK-MEL-28, b-Raf (V600E) addicted melanoma cells. Type of assay: cell-based, human.
For the next assay, the system named is C6. In words: Impedance-based TCRP of PDGFR addicted C6 glioma cells. The following applies: for TCRP (Cell Index response): increasing concentrations; for IC50: Rattus norvegicus, read-out: IC50 (TCRP). The class given is cell-based, rat.
For a further assay, the system named is A549. Briefly: Impedance-based TCRP of A549 cells (wild-type p110α) to PI3K inhibitor. Conditions: A549 expressing wild-type p110α; serum starved 5 hour. The class given is cell-based, human. On the procedure: (§1) Cells were serum starved for 5 hour. The cell index was normalized at time of compound addition. At the indicated time point of treatment, increasing concentrations of PI103 (0-10 uM) was added to the cells and the cell responses were monitored.
(§2) Cell lines. A mouse fibroblast 10T1/2 expressing the cell-surface receptor TVA, which is specific for subgroup-A avian retroviruses was used. The cells were transformed by infection with human p110α (H1047R)-expressing avian retrovirus and are referred to as 10T1/2 tva-H1047R. A549 is a human lung cancer cell line expressing wild-type p110α. T47D and BT20 are human breast cancer cell lines expressing mutant p110α (T47D) and p110α (P539R/H1047R), respectively.
(§3) To test if the characteristic TCRP is specific to PI3K inhibition, we also test the cell responses in several other cell lines (FIG. 35). […] Such characteristic TCRP could be used for identifying or screening unknown biologically active agents which may act as PI3K inhibitors.

In the next assay the test system is T47D. In words: Impedance-based TCRP of T47D cells (mutant p110α) to PI3K inhibitor. The class given is cell-based. The following applies: Homo sapiens, 10 min. The procedure: as §1, §2, §3
In a further assay the test system is 10T1/2 tva-H1047R. Briefly: Impedance-based TCRP of 10T1/2 tva-H1047R cells expressing human p110α (H1047R). The class given is cell-based, mouse.
The next assay deals with BT20. Briefly: Impedance-based TCRP of BT20 cells (p110α P539R/H1047R) to PI3K inhibitor. Type of assay: cell-based. Conditions: Homo sapiens, BT-20, 10 min. On the procedure: as §1, §2, §3
A further assay has as its system AKT phosphorylation. In words: Western analysis of PI3K downstream signal in 10T1/2 tva-H1047R and 10T1/2 tva. The class given is cell-based, mouse. The following applies: 10 uM; treated for 2 hours; serum starved 5 hours.
Another assay concerns 10T1/2 tva. Briefly: Impedance-based TCRP of control cell line 10T1/2 tva. Also noted: species or system mouse. Conditions: 10T1/2 tva control cell line; from 0 to 10 uM.
For a further assay, the system named is HCC827. In words: Impedance-based TCRP of HCC827 cells, mutant EGFR (Del E746_A750). Type of assay: cell-based. The following applies: HCC827; increasing concentrations.
Another assay has as its system RBL-2H3. In words: Impedance response of parental RBL-2H3 cells. The class given is cell-based, rat. The following applies: RBL-2H3 parental. The procedure: Cell lines. RBL2H3-PDGFR is engineered rat basophilic cell line that expresses exogenous PDGFRβ. RBL2H3 is the parental cell line.
RBL2H3-PDGFR overexpressing PDGFRβ was constructed by Lenti viral transduction of RBL2H3. Both RBL2H3-PDGFR and RBL2H3 cells were seeded at 20,000 cells per well of 96-well E-plate (Roche/ACEA). The cells were continuously monitored using the xCelligence system (Roche/ACEA).
Cells were serum starved for 2 hour, then stimulated by addition of PDGF BB (0-50 ng/ml). […] Plotting the peak normalized CI response versus the corresponding log concentration allows for calculation of the EC50 (1.07 ng.mL) of PDGF acting on PDGFR in the engineered cell line.
This dose-dependent decease in the CI is specific to PDGFR inhibition.

A further assay relates to RBL-2H3 PDGFRβ. In words: Impedance response of engineered RBL-2H3 PDGFRβ cells to PDGF stimulation and PDGFR inhibition. Type of assay: cell-based, rat. Conditions: serum starved 2 hour, peak normalized CI response.

Description for AKT phosphorylation: Cells were lysed and subject to Western analyses. […] Equal intensity of GAPDH bands indicated equal protein loading.
Protocol for C6: (§4) The cell index (CI) was normalized at time of compound addition.
Kinase inhibitors including PDGFR inhibitors at different concentrations in DMSO were added into wells following the incubation period. The cell status was monitored prior to and after the compound addition using xCelligence system (Roche applied sciences). […] The Cell index was normalized against the cell index values at a time point just before compound addition.
IC50 of the PDGFR inhibitor can be derived from the CI versus the corresponding log concentration of the inhibitor.
Protocol for Colo-205: (A) The impedance-based time-dependent cellular profiles (TCRPs) of colo205 in response to b-Raf inhibitor on xCelligence system (Roche/ACEA). […] The cell index (CI) was normalized at time of the compound addition. At the indicated time point of treatment (arrow), increasing concentrations of b-Raf inhibitor (from 0 to 10 uM) were added to the cells and the cell response was monitored. […] (B) IC50 of b-Raf derived from impedance-based TCRP.
as §4
(§5) Kinase inhibitors including b-Raf inhibitors at different concentrations in DMSO were added into wells following the incubation period. The cell status was monitored prior to and after the compound addition using xCelligence system (Roche applied sciences). […] The Cell index was normalized against the cell index values at a time point just before compound addition.
Protocol for H1993: Cells were treated with ACEA348 (0-10 uM) for 30 min.
as §4
The time-dependent cell response profiles (TCRP) were monitored prior to and after the compound addition using the xCelligence system (ACEA Biosciences/Roche applied sciences).
The Cell index was normalized against the cell index values at a time point just before compound addition. […] EC50 and IC50 of the Met inhibitor can be derived from the CI versus the corresponding log concentration of the inhibitor.
Protocol for HCC827: as §4
Kinase inhibitors including EGFR inhibitors at different concentrations in DMSO were added into wells following the incubation period. The cell status was monitored prior to and after the compound addition using xCelligence system (Roche applied sciences). The Cell index was normalized against the cell index values at a time point just before compound addition.
Protocol for RBL-2H3 PDGFRβ: RBL-2H3 PDGFRβ cells were seeded at 20,000 cells per well of 96-well E-plate (Roche/ACEA). The cells were continuously monitored using the xCelligence system (Roche/ACEA). […] The cell index (CI) was normalized at time of compound addition. Time zero depicts the time point of treatment. […] The cell index (CI) was normalized at time of compound addition. Time zero depicts the time point of treatment.
Description for SH-SY5Y: The cell index (CI) was normalized at time of compound addition. […] DMSO was served as solvent control.
The cell index was normalized at time of compound addition. DMSO at the same dose was served as solvent control.
as §4
Protocol for SK-MEL-28: (A) The impedance-based time-dependent cellular profiles (TCRPs) of SK-MEL28 in response to b-Raf inhibitor on xCelligence system (Roche/ACEA). […] The cell index (CI) was normalized at time of the compound addition. At the indicated time point of treatment (arrow), increasing concentrations of b-Raf inhibitor (from 0 to 10 uM) were added to the cells and the cell response was monitored. […] (B) EC50 of b-Raf derived from impedance-based TCRP.
as §4
Cell lines. […] The time-dependent cell response profiles (TCRP) were monitored prior to and after the compound addition using the xCelligence system (ACEA Biosciences/Roche applied sciences).
as §5

On to `COc1cc2ncnc(Nc3ccc(F)c(Cl)c3)c2cc1OCCCN1CCOCC1` [Gefitinib], for which the “TCRP (Cell Index response, cell growth)” value with Colo-205 is recorded as “did not inhibit Colo205 cell growth”. Moreover, the “TCRP (Cell Index response)” value in the assay on H1993 was “None of these inhibitors induced a TCRP similar to PF2341006”; with SH-SY5Y it was “None trigged a TCRP representative to that trigger by ALK inhibitors”; in the assay with SK-MEL-28 (SK-MEL-28, increasing concentrations) it was “did not affect CI changes that are significantly different from the negative control”; in the assay with C6 (C6) it was “did not affect CI changes that are significantly different from the negative control”.

`Oc1cccc(-c2nc(N3CCOCC3)c3oc4ncccc4c3n2)c1` [PI103]: the “TCRP (Cell Index response)” value in the assay with A549 was “did not show clear dose response”; in the assay with 10T1/2 tva-H1047R (10T1/2 tva-H1047R in the presence of siRNA targeting human p110α, within 10 min of compound addition) it was “no sharp decrease”; in the assay with 10T1/2 tva-H1047R (10T1/2 tva-H1047R, serum starved, from 0 to 10 uM), “immediate decrease”; in the assay on 10T1/2 tva, “did not show a clear dose response”. Further, the IC50 in the assay with T47D was 126 nM; in the assay on 10T1/2 tva-H1047R (Mus musculus, 5 h, read-out: IC50 (TCRP)) it was 89 nM; with BT20, 165 nM. The “PI3K downstream signal (AKT phosphorylation), Western” value in the assay on AKT phosphorylation is reported as “efficiently inhibited”.

In the case of `Cc1ccc(NC(=O)c2ccc(CN3CCN(C)CC3)cc2)cc1Nc1nc(-c2cccnc2)cs1` [Masitinib], the “TCRP (Cell Index response)” value was “None of these inhibitors induced a TCRP similar to PF2341006” with H1993; “dose-dependent short-term increase (to a various degree) and long-term decrease in Cell Index” in the assay with C6 (C6). Besides, the half-inhibitory concentration (IC50) with C6 (C6, Long-term (96 hours post compound treatment) CI) worked out at 487 nM. Also, the “TCRP (Cell Index response, cell growth)” value with HCC827 was “did not inhibit HCC827 cell growth”.

Regarding `CNC(=O)c1cc(Oc2ccc(NC(=O)Nc3ccc(Cl)c(C(F)(F)F)c3)cc2)ccn1` [sorafenib], the “TCRP (Cell Index response)” value was “None trigged a TCRP representative to that trigger by ALK inhibitors” in the assay with SH-SY5Y; “cell index decreases in both the control cell line and H1047R cell line” in the assay on 10T1/2 tva; “did not affect CI changes that are significantly different from the negative control” in the assay on SK-MEL-28; “dose-dependent short-term increase (to a various degree) and long-term decrease in Cell Index” in the assay with C6 (C6). Besides, the concentration for half-maximal inhibition (IC50) with C6 (C6, 96 h) is 190 nM.

Take “PDGF: PDGF BB, ligand used to stimulate PDGFRβ”: in the assay on RBL-2H3, the “Cell Index response of parental cell line” value is “did not show any response”. Further, the “EC50 of PDGF acting on PDGFR” value in the assay with RBL-2H3 PDGFRβ was 1.07 ng·mL.

The IC50 is the concentration that gives 50% inhibition.
